Measurements from patent US10456434B2, “Extracts obtained from cell line cultures from plants belonging to the Oleaceae family (e.g. Syringa vulgaris), their preparation and use” (CRODA ITALIANA S. P. A., priority 2005, dated 2019).

Columns and labels:
[1] = Superoxide anion chemiluminescent assay (hypoxanthine/xanthine oxidase); type: biochemical; conditions: mean of 6 independent assays
Description: (§1) The superoxide anion has been measured by a chemiluminescent assay based on the hypoxanthine (HPX)/xanthine oxidase (XOD) reaction using the Lumimax Superoxide Anion Detection Kit (Stratagene, La Jolla, Calif., USA) and following the manufacturer's instructions. Hydroxyl radical scavenger activity has been measured by means of the Fenton reaction for the production of hydroxyl radicals and chemiluminescent dosage (using a Victor^3 chemiluminometer, Wallac, Finland) with luminol. Peroxynitrite ions have been determined by means of dosage with a spontaneous generator of peroxynitrites (3-morpholinosidnonimine hydrochloride; SIN-1) and a stable reagent for the nitroxyl ions (2-(4-carboxyphenyl)-4,4,5,5-tetramethylimidazoline-1-oxyl-3-oxide potassium salt PTIO spin trap) then dosed by means of electron spin resonance (ESR) using a. Nippon Denshi JES-FR30.
(§2) Extract 1 and Extract 2 listed in Table are derived from Syringa vulgaris cell cultures. […] The results are expressed as the concentration inhibiting 50% of activity (IC50). The values reported are the means of 6 independent assays.

[2] = Hydroxyl radical scavenger activity (Fenton reaction, luminol chemiluminescence); type: biochemical; conditions: mean of 6 independent assays
Description: as §1, with “Syringa vulgaris Extracts 1 and 2, prepared as described in examples 1 and 2, have been used to assess in vitro antioxidant action with specific oxygen radical generating systems such as the superoxide anion (O2^−), the hydroxyl radical (HO), the peroxynitrite radical (ONOO^−) and the inhibition of lipid peroxidation. The” for “The”, “JES-FR30. […].” for “JES-FR30.”
Extract 1 and Extract 2 listed in Table are derived from Syringa vulgaris cell cultures. In said extracts, verbascoside is present at 0.82% and 35% by weight respectively. […]

[3] = Peroxynitrite assay (SIN-1, PTIO spin trap, ESR); type: biochemical; conditions: mean of 6 independent assays
Description: as §1, §2

[4] = tested on: A549 cells; experiment: Oxidative stress (ROS, DCF fluorescence) in A549 cell cultures; type: cell-based, human; conditions: 1 mM, A549, galactose oxidative stress
Procedure: 10×10^5 A549 cells (ATCC-CCL195) have been seeded into wells with 3 ml of DMEM/medium (HAM'S F12K) with 10% FCS and incubated at 37° C. in a 5% CO2, water vapour saturated atmosphere. After 24 hours the culture medium is replaced by medium supplemented with 5.55 mM galactose, which is left in contact with the cells for 20 hours. The medium is once again replaced with medium containing galactose in the presence or absence of the test compound. After 5 hours, quantitative measurement of the ROSs is performed by washing the cells with phosphate buffer and then incubating them with 30 μM DCF-DA in buffer solution. At the end of a 15 minute incubation, excess DCF-DA is removed from the cells by washing, prior to measuring the fluorescence emitted.
Antioxidant activity measurements are performed using a (Hitachi F3010) spectrophotometer with excitation at 488 nm and measuring emission at 525 nm, and values are expressed in pmoles, by extrapolation from the calibration curve constructed using known quantities of DCF, in relation to total cellular protein. Values are thus expressed in % ages with respect to the ROS, content of the cells not subjected to oxidative stress, to which are assigned a value of 100.
Syringa vulgaris Extracts 1 and 2 and ascorbic acid have been dissolved in phosphate buffer.

[5] = tested on: tyrosinase; experiment: Tyrosinase inhibition, oxidation of L-tyrosine to L-DOPA; type: biochemical; conditions: 250 μg/ml
Description: (§3) The enzyme tyrosinase catalyses the reactions leading to melanin biosynthesis from tyrosine. […] Substances inhibiting tyrosinase activity produce clearing/bleaching effect on the skin, since they block melanin synthesis. The method used to determine the inhibition of tyrosinase activity in the oxidation reaction of L-tyrosine to L-DOPA is that described in Kim et al. […] Biol. Pharm. Bull. 28(2), 323-327, 2005). The method applied for determination of the inhibition of tyrosinase activity in the conversion of L-DOPA to DOPAquinone is that described in Masamoto et al. (Mushroom tyrosinase inhibitory activity of esculetin isolated from seeds of Euphorbia lathyris L. Biosci. Biotechnol. Biochem., 67(3), 631-634, 2003).

[6] = tested on: tyrosinase; experiment: Tyrosinase inhibition, conversion of L-DOPA to DOPAquinone; type: biochemical, Mushroom; conditions: 100 μg/ml
Description: as §3

Row | Test L-tyrosine-DOPA inhibitory activity (%) [5] [%] | Test LDOPA-DOPAquinone inhibitory activity (%) [6] [%] | SMILES | other results
1 |  |  | O=C1c2c(O)cccc2C([C@@H]2O[C@H](CO)[C@@H](O)[C@H](O)[C@H]2O)c2cc(CO)cc(O)c21 (some centres unmarked) [Aloin, reference compound] | Superoxide radical (IC50) [1]: 7.6 µg/mL; Hydroxyl radial (IC50) [2]: 2.9 µg/mL; Peroxynitrite radical (IC50) [3]: 12.3 µg/mL
2 |  |  | O=C1O[C@H]([C@@H](O)CO)C(O)=C1O [Ascorbic acid, reference compound] | ROS level (%) [4]: 62.91 ± 3.82 %
3 | 94.1 | 35 | O=c1cc(CO)occ1O [Kojic acid, reference compound] | 
4 | 56.9 | 0 | Oc1cccc(O)c1 [Resorcinol, reference compound] | 
